Laboratory results: patent US5157019A, “Serine protease inhibitors” (Monsanto Company, priority 1991, dated 1992)
Bridge positions count the residues as written; N and C are the ends. Ends that are not written are not given here.

Legend:
Assay type in all cases: biochemical
HUMAN SPUTUM ELASTASE = target: T1, HUMAN SPUTUM ELASTASE (Homo sapiens, UniProt P08246); experiment: Elastase assay (MeO-Suc-Ala-Pro-Val-pNA); settings: 200 μM peptide
T1 construct: HUMAN SPUTUM ELASTASE; purchased Elastin Products Company SE563; host or cells: human sputum (from the product name)
T1 sequence (P08246 30-267): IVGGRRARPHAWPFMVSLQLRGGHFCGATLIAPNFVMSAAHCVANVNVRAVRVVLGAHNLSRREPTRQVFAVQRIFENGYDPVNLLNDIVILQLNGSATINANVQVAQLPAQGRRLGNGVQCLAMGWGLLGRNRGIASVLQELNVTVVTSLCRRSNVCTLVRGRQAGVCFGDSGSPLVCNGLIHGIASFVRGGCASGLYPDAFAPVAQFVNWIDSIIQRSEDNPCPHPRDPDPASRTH
Description: Enzyme used is "HUMAN SPUTUM ELASTASE®" which is an enzyme which is the target protease for α1 antitrypsin from Elastin Products Company, Catalog No. SE563, lot 85071, 875 units/mg as determined by supplier with N-Suc-Ala-Ala-Ala-pNA; prepared at 0.2 mg/mL in 0.1M Tris·HCl, pH 8.8 at 37 degrees C. An amount of enzyme is used to give approximately 0.1 change in Absorbance/min; which in this assay was 1 μg.
The substrate is MeO-Suc-Ala-Pro-Val-pNA, Sigma Catalog No. M-4765. About 50 mg of the substrate is dissolved in 1 ml of 1-methyl-2-pyrrolidinone and diluted to 33 mls. with 0.1M Tris-HCl, pH 7.5, containing 0.5M NaCl, and 0.01 wt % sodium azide.
Peptide solutions are prepared at 500 μM, using 1.5% of the final volume of DMSO first and diluting with distilled water (DW) or 0.1M Tris.HCl, pH 8.8 at 37 degrees C. [formula]

Cathepsin G = target: T2, Cathepsin G (Homo sapiens, UniProt P08311); experiment: Cathepsin G assay (Suc-Ala-Ala-Pro-Phe-pNA, 410 nm); settings: 200 μM peptide (head of Table IX)
T2 construct: purchased Elastin Products Company (EPC) SG-45
T2 sequence (P08311 21-255): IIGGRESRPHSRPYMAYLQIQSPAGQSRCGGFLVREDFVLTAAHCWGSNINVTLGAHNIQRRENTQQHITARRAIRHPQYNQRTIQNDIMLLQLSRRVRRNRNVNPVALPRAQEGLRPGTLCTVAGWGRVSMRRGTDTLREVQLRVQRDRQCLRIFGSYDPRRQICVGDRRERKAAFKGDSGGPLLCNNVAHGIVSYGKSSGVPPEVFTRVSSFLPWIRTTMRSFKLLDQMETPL
Description: Reference: Elastin Products Company (EPC) technical data sheet, cathepsin G, No. SG-45.
Method: Spectrophotometric rate determination
A) Buffer; 0.1M Tris, pH 7.5 at 25° C.
B) Substrate; 60 mM Suc-Ala-Ala-Pro-Phe-pNA obtained from Sigma Chemical Company. Solution prepared by dissolving 50 mg substrate in 1.3 ml of 1-methyl-2-pyrrolidinone. Stored at 5° C.
C) Peptide Inhibitors; 200 μM HCl salt. Depending on peptide solubility, dissolved in buffer or DMSO and then buffer added for a final concentration of 10% DMSO.
D) Enzyme; Cathepsin G, EPC SG-45, lot 85117 used for all assays, 0.0077 mg protein per mg solid determined by supplier by Bradford method. Enzyme was dissolved in buffer at a concentration of approx. 5 mg/ml solid. Solution stored on ice, used within 2 hours.
Pipetted the following into semi-micro quartz cuvettes: 0.3 ml buffer, 0.15 ml peptide solution and 0.5 ml of substrate solution. Equilibrate for 5 min. at 25° C., then add 0.05 ml of enzyme solution and monitor the release of pNA spectrophotometrically at 410 nm for at least 3 minutes. The controls contain either 0.45 ml of buffer or 20% DMSO in buffer (for a final concentration of 10% DMSO).
The rate (O.D./min) is obtained as an average over 3 minutes. [formula]

Thrombin = Thrombin (Homo sapiens, UniProt P00734); experiment: Coagulation inhibition assay, thrombin (fibrinogen clotting end point); settings: 40 μM peptide
Description: Inhibitory activity of subject peptides toward thrombin and Factor Xa were done in the following manner. Mix 100 μL Thrombin (3.125 units/ml, 1.125 μg/ml) in TAB with […] Peptide in TAB and incubate for 1 minute at 37° C. Add 50 μL Fibrinogen (2 mg/ml)and measure clotting end point (in seconds) in a Fibrometer (BBL) TAB=Thrombin Assay Buffer: 0.15M NaCl, 6.6 gm/L PEG-6000, 0.01M Imidazole, 0.01 CaCl2, pH 7.4

tPA = target: T3, tPA (Homo sapiens, UniProt P00750); experiment: Tissue plasminogen activator (tPA) assay (S2288); settings: for inhibition at 10 µM: 10 μM peptide
T3 construct: Enzyme tPA, 2 chain activity standard; purchased American Diagnostica, Inc. 116
Description: Substrate H-D-Ile-Pro-Arg-pNA·2HCl (S2288, Kabi), 10 mM in deionized water; may be frozen for future use.
Buffer 50 mM Tris·HCl, pH 7.4 containing 0.01% Tween 80.
Inhibitor […] in deionized water.
Enzyme tPA, 2 chain activity standard (Catalog #116, American Diagnostica, Inc.); stock solution=10 μL of original solution per mL in buffer.
Mix 200 μL of buffer, 200 μL of deionized water (control) or inhibitor solution and 40 μL of substrate solution. Incubate for 2 min. at 37° C., add 40 μL of enzyme, mix, and measure rate spectrophotometrically at 405 nm for about 5 min. Inhibition (%) is calculated in the same manner as in previous assays.

C1s = target: T4, C1s (Homo sapiens, UniProt P09871); experiment: C1s assay by inhibition of fluid phase C4 activation; settings: Table X; μM concentration at which protease was inhibited 50%; read-out: IC50 C1S
T4 construct: prepared from pooled human plasma; from tissue; host or cells: pooled human plasma
T4 sequence (P09871 16-688): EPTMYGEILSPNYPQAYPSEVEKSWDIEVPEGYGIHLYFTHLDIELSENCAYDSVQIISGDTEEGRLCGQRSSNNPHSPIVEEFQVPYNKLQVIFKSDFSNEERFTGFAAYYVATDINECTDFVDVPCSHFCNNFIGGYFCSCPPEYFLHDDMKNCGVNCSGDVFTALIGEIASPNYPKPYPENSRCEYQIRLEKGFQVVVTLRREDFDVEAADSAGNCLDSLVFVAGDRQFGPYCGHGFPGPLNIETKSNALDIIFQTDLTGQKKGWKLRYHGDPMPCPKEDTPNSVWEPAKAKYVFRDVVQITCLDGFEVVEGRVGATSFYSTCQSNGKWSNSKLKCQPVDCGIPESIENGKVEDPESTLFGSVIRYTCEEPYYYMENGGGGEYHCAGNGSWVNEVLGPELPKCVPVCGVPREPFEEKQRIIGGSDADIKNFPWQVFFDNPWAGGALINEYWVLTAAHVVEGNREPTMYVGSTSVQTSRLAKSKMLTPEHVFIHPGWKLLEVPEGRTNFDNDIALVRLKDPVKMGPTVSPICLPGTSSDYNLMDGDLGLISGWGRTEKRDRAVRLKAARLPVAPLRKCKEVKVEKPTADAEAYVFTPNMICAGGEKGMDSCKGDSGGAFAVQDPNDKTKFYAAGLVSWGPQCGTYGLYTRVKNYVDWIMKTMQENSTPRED
Description: (§1) Highly purified C3, C4, Factor D, Factor B, and C1s were prepared from pooled human plasma. Factors B and C4 were radiolabeled by periodate oxidation of sialic acid residues, followed by reduction with tritiated sodium borohydride. In a representative experiment, a solution of 1.2 mg of factor B in 1.8 ml of PBS was treated with 70 μl of 0.1M NaIO4. After 10 min incubation on ice, excess reagent was removed by filtration over "SEPHADEX®" which is a matrix for gel chromatography (1.0 cm×20 cm). To the protein pool was added 60 μl of NaB[^3 H]4 solution and incubated for 30 min on ice. Labeled protein was separated from excess reagent by desalting or dialysis. Human C4 was radiolabeled in the same manner. Radiolabeled proteins were stored at -70° C. in PBS. The specific radioactivity of ^3 H factor B was about 10,000 CPM/μg and that of ^3 H-C4 was 5,000 CPM/μg.
The cleavage of C4 was studied by incubating 10 μg of tritiated C4 with 3-5 ng of C1s at 37° C. for 30 min in 100 μl of PBS (pH 7.10) containing different concentrations of inhibitor. The reaction was stopped by the addition of 2-mercaptoethanol. The extent of cleavage was analyzed by SDS-polyacrylamide gel electrophoresis. The stained bands corresponding to C4α and C4α' were cut out and sliced. The radioactivity of the fragments was measured by liquid scintillation counting. The percent cleavage of the reaction was calculated as follows: [formula]
(§2) Electrophoresis was carried out under reducing conditions in the Laemmli system using slab gel of 8% polyacrylamide. The gels were stained and destained (Fairbanks et al. Biochemistry (1971) 10:2606).
(§3) The percent inhibition of the reaction was calculated according to the following relationship: [formula]
(§4) A: % cleavage without inhibitor
(§5) B: % cleavage with inhibitor
(§6) The concentration inducing 50% inhibition was obtained by plotting the percent inhibition on a probability graph (National Blank Book Co., No. 12-083) on the ordinate and the log of the inhibitor concentration on the abscissa. From this graph, a 50% inhibition concentration IC50 was obtained and this value was employed to express the activity.

Factor D = target: T5, Factor D (Homo sapiens, UniProt P00746); experiment: Factor D assay by inhibition of fluid phase Factor B activation; settings: Table X; μM concentration at which protease was inhibited 50%; read-out: IC50 D
T5 construct: prepared from pooled human plasma; from tissue; host or cells: pooled human plasma
Description: as §1
The effect of the peptides on Factor D-dependent cleavage of factor B was studied by incubating 3.5 μg of Factor B, 1.5 μg of C3(H2 O) and 0.2 μl of Factor D at 37° C. for 60 min in Mg-PBS containing different concentrations of inhibitor. Uncleaved Factor B and its fragments, Ba and Bb, were first separated by SDS-PAGE and analyzed as described above. The percent cleavage of the reaction was calculated as follows: [formula]
B=radioactivity (CPM) of uncleaved factor B
Bb=radioactivity (CPM) of fragment Bb
Ba=radioactivity (CPM) of fragment Ba
as §2, §3, §4, §5, §6

T3 sequence (P00750 311-562 limits assumed): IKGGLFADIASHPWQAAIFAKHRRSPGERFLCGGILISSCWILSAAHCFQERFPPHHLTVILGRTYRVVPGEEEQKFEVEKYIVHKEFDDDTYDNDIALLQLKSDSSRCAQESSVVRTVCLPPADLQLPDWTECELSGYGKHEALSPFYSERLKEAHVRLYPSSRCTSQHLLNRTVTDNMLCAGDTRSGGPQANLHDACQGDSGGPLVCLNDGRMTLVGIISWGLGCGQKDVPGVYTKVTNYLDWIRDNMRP
T3 sequence (P00750 36-310 partner limits assumed): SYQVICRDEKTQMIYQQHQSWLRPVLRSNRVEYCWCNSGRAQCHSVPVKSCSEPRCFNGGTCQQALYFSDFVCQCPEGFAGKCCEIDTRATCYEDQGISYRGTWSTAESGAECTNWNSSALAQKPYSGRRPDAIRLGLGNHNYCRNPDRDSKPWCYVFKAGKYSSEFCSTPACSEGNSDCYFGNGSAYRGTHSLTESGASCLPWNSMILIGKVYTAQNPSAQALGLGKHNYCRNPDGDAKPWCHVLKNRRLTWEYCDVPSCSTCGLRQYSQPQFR
T5 sequence (P00746 26-253): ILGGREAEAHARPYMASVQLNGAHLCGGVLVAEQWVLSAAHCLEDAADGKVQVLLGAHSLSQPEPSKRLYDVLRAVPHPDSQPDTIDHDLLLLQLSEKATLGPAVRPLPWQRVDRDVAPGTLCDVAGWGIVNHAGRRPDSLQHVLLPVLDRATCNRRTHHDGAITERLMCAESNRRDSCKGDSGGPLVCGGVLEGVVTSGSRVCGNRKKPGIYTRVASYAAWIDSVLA

Sequence | Elastase Inhibition (HUMAN SPUTUM ELASTASE) [%] | Cathepsin G Inhibition (Cathepsin G) [%] | further results
AGRSLNPNRTIVRFNRPFLLII [Peptide 11] |  |  | inhibition at 200 µM (HUMAN SPUTUM ELASTASE): 15%; inhibition at 200 µM (Cathepsin G): 40%; inhibition at 40 µM (Thrombin): 81%
FLEAIPMSIPPEVKFNKPFVFLI [Peptide 4] |  |  | inhibition at 200 µM (HUMAN SPUTUM ELASTASE): 70%; inhibition at 200 µM (Cathepsin G): 14%
FLEAIPMSIPPEVKFNKPFVFLLIEQNTKSPLFLGKVVNPTQK [Peptide 24] | 26 | 0 | 
FLEAIPMSIPPIVRFNRPFLLII [Peptide 19] | 100 |  | 
FLEAIPMSIPPIVRFNRPFLLIIVPTDTQNIFFLSKVTNPSKPR [Peptide 32] | 0 | 0 | 
FLEAIPMSIPPRVTFKANRPFLVFIREVPLNTIIFLGRVANP [Peptide 28] | 0 | 16 | 
FLEAIPMSIPPTFKANRPFLVFI [Peptide 8] | 77 | 44 | Thrombin inhibition (Thrombin): 30%
FLEAIPMSIRTIVRFNRPFLLII [Peptide 12] | 0 | 51 | 
IAGRSLNPNIVRFNRPFLLIIVPTDTQNIFFLSKVTNPSKPR [Peptide 31] | 0 | 54 | 
IAGRSLNPNPPEVKFKNPFVFLI [Peptide 5] | 0 | 0 | 
IAGRSLNPNRVTFKANRPFCVFIREVPLNTIIFLGCVANPAVK (disulfide 20-36) [Peptide 45] |  |  | inhibition at 20 µM (tPA; 20 μM peptide): 69%
IAGRSLNPNRVTLRYNKPFILVLFETPGNSLVFLGRISNPATK [Peptide 33] | 0 | 35 | 
IAGRSLNPNRVTVKFNKPFVFLLIEQNTKSPLFLGKVVNPTQK [Peptide 25] | 0 | 35 | 
IDGRIVEGSRVTFKANRPFLVFI [Peptide 18] |  |  | IC50 (C1s): 40 µM; IC50 (Factor D): 43 µM
LQRALEILRVTFKANRPFLVFI [Peptide 14] |  |  | IC50 (C1s): 9 µM; IC50 (Factor D): 8 µM
PFLVFILPNIFLGRVAN [Peptide 43] |  |  | inhibition at 10 µM (tPA): 7%
RPFLVFILPGIFLGRVANP [Peptide 38] |  |  | inhibition at 10 µM (tPA): 59%
RPFLVFILPNIFLGRVAN [Peptide 42] |  |  | inhibition at 10 µM (tPA): 44%
RPFLVFILPNIFLGRVANP [Peptide 39] |  |  | inhibition at 10 µM (tPA): 55%
RPFLVFILPNIFLRVANP [Peptide 44] |  |  | inhibition at 10 µM (tPA): 55%
RPFLVFIRPGDIFLGRVANP [Peptide 40] |  |  | inhibition at 10 µM (tPA): 39%
RPFLVFIRPNDFLGRVANP [Peptide 41] |  |  | inhibition at 10 µM (tPA): 8%
RPFLVFLPNILRVANP [Peptide 46] |  |  | inhibition at 10 µM (tPA): 0%
TLLSALVETPPEVKFKNPFVFLI [Peptide 6] | 17 | 0 | 
TLLSALVETRTIVKFNKPFVFLLIEQNTKSPLFLGKVVNPTQK [Peptide 26] |  | 0 | 
TLLSALVETRTIVRFNRPFLLII [Peptide 10] | 0 | 65 | 
TLLSALVETRTIVRFNRPFLLIIVPTDTQNIFFLSKVTNPSKPR [Peptide 30] |  | 38 | 
TLLSALVETRVTFKANRPFLVFI [Peptide 9] |  | 41 | Thrombin inhibition (Thrombin): 32%
